Where “and” joins values, the source holds several entries; their conditions need not be identical. Identical values can stand only once.
Experiments:
Type in all cases: cell-based
H1299 = experiment: MTT assay, growth inhibition by deguelin or deguelin derivatives; conditions: 3 days
H596 = experiment: as above; conditions: 3 days
H460 = experiment: as above; conditions: 3 days
H358 = experiment: as above; conditions: 3 days
A549 = experiment: as above; conditions: 3 days
H322 = experiment: as above; conditions: 3 days
NSCLC cells = experiment: MTT assay, growth inhibition of NSCLC cells by deguelin and deguelin derivatives (Table 2, FIG. 7); conditions: 0.01-1 μM, 3 days

`COc1cc2c(cc1OC)[C@]1(O)C(=O)c3ccc4c(c3O[C@@H]1CO2)C=CC(C)(C)O4` [tephrosin] was tested, and the “MTT assay reading, Average” value (H1299; H1299, 0.01 μM) was 0.4143, the “MTT assay reading, individual replicate” value (H1299; H1299, 0.01 μM) was 0.38 and 0.248 and 0.428 and 0.399 and 0.471 and 0.527 and 0.447 and the “MTT assay reading, Average” value (H1299; H1299, 0.1 μM) was 0.7746. The “MTT assay reading, individual replicate” value (H1299; H1299, 0.1 μM) was 0.795 and 0.806 and 0.783 and 0.784 and 0.956 and 0.491 and 0.807, the “MTT assay reading, Average” value (H1299; H1299, 0.5 μM) was 0.1507 and the “MTT assay reading, individual replicate” value (H1299; H1299, 0.5 μM) was 0.135 and 0.147 and 0.166 and 0.204 and 0.179 and 0.097 and 0.127. For the same molecule, the “MTT assay reading, Average” value (H1299; H1299, 1 μM) was 0.2739, the “MTT assay reading, individual replicate” value (H1299; H1299, 1 μM) was 0.261 and 0.279 and 0.255 and 0.26 and 0.36 and 0.183 and 0.319 and the “MTT assay reading, Average” value (H596; H596, 0.01 μM) was 0.1156. The “MTT assay reading, individual replicate” value (H596; H596, 0.01 μM) was 0.062 and 0.127 and 0.078 and 0.138 (2×) and 0.103 and 0.163, the “MTT assay reading, Average” value (H596; H596, 0.1 μM) was 0.0826 and the “MTT assay reading, individual replicate” value (H596; H596, 0.1 μM) was 0.082 and 0.062 and 0.066 and 0.095 and 0.09 and 0.058 and 0.125. The “MTT assay reading, Average” value (H596; H596, 0.5 μM) was 0.1631, the “MTT assay reading, individual replicate” value (H596; H596, 0.5 μM) was 0.137 and 0.159 and 0.151 and 0.111 and 0.158 and 0.076 and 0.35 and the “MTT assay reading, Average” value (H596; H596, 1 μM) was 0.1983. The “MTT assay reading, individual replicate” value (H596; H596, 1 μM) was 0.287 and 0.257 and 0.172 and 0.151 and 0.215 and 0.131 and 0.175, the “% control” value (H460; H460, 0.01 μM) was 0.05% and the “MTT assay reading, Average” value (H460; H460, 0.01 μM) was 0.0956. For the same molecule, the “MTT assay reading, individual replicate” value (H460; H460, 0.01 μM) was 0.072 and 0.051 and 0.097 and 0.1 and 0.105 and 0.132 and 0.112, the “% control” value (H460; H460, 0.1 μM) was 0.05% and the “MTT assay reading, Average” value (H460; H460, 0.1 μM) was 0.0816. The “MTT assay reading, individual replicate” value (H460; H460, 0.1 μM) was 0.072 and 0.067 and 0.086 (2×) and 0.112 and 0.056 and 0.092, the “% control” value (H460; H460, 0.5 μM) was 0.08% and the “MTT assay reading, Average” value (H460; H460, 0.5 μM) was 0.141. For the same molecule, the “MTT assay reading, individual replicate” value (H460; H460, 0.5 μM) was 0.088 and 0.113 (2×) and 0.159 and 0.16 and 0.19 and 0.164, the “% control” value (H460; H460, 1 μM) was 0.10% and the “MTT assay reading, Average” value (H460; H460, 1 μM) was 0.1819. For the same molecule, the “MTT assay reading, individual replicate” value (H460; H460, 1 μM) was 0.162 and 0.184 and 0.154 and 0.272 and 0.183 and 0.133 and 0.185, the “MTT assay reading, Average” value (H358; H358, 0.01 μM) was 0.6206 and the “MTT assay reading, individual replicate” value (H358; H358, 0.01 μM) was 0.508 and 0.601 and 0.658 and 0.674 and 0.608 and 0.59 and 0.705. The “MTT assay reading, Average” value (H358; H358, 0.1 μM) was 0.5327, the “MTT assay reading, individual replicate” value (H358; H358, 0.1 μM) was 0.522 and 0.496 (2×) and 0.558 and 0.516 and 0.579 and 0.562 and the “MTT assay reading, Average” value (H358; H358, 0.5 μM) was 0.1047. The “MTT assay reading, individual replicate” value (H358; H358, 0.5 μM) was 0.054 and 0.048 and 0.1 and 0.105 and 0.117 and 0.147 and 0.162, the “MTT assay reading, Average” value (H358; H358, 1 μM) was 0.2634 and the “MTT assay reading, individual replicate” value (H358; H358, 1 μM) was 0.245 and 0.233 and 0.332 and 0.139 and 0.234 and 0.293 and 0.368. For the same molecule, the “% control” value (A549; A549, 0.01 μM) was 0.16%, the “MTT assay reading, Average” value (A549; A549, 0.01 μM) was 0.2403 and the “MTT assay reading, individual replicate” value (A549; A549, 0.01 μM) was 0.274 and 0.196 and 0.223 and 0.284 and 0.229 and 0.252 and 0.224. The “% control” value (A549; A549, 0.1 μM) was 0.17%, the “MTT assay reading, Average” value (A549; A549, 0.1 μM) was 0.248 and the “MTT assay reading, individual replicate” value (A549; A549, 0.1 μM) was 0.161 and 0.279 and 0.299 and 0.218 and 0.262 and 0.236 and 0.281. The “% control” value (A549; A549, 0.5 μM) was 0.17%, the “MTT assay reading, Average” value (A549; A549, 0.5 μM) was 0.255 and the “MTT assay reading, individual replicate” value (A549; A549, 0.5 μM) was 0.299 and 0.243 and 0.26 and 0.217 (2×) and 0.305 and 0.244. For the same molecule, the “% control” value (A549; A549, 1 μM) was 0.23%, the “MTT assay reading, Average” value (A549; A549, 1 μM) was 0.3313 and the “MTT assay reading, individual replicate” value (A549; A549, 1 μM) was 0.434 and 0.15 and 0.366 and 0.295 and 0.386 and 0.341 and 0.347. The “MTT assay reading, Average” value (H322; H322, 0.01 μM) was 0.6627, the “MTT assay reading, individual replicate” value (H322; H322, 0.01 μM) was 0.527 and 0.596 and 0.713 and 0.655 and 0.68 and 0.721 and 0.747 and the “MTT assay reading, Average” value (H322; H322, 0.1 μM) was 0.7197. For the same molecule, the “MTT assay reading, individual replicate” value (H322; H322, 0.1 μM) was 0.685 and 0.659 and 0.726 and 0.643 and 0.732 and 0.795 and 0.798, the “MTT assay reading, Average” value (H322; H322, 0.5 μM) was 0.1343 and the “MTT assay reading, individual replicate” value (H322; H322, 0.5 μM) was 0.113 and 0.109 (2×) and 0.12 and 0.117 and 0.162 and 0.21. The “MTT assay reading, Average” value (H322; H322, 1 μM) was 0.2089, the “MTT assay reading, individual replicate” value (H322; H322, 1 μM) was 0.223 and 0.216 (3×) and 0.182 and 0.168 and 0.241 and the “inhibiting cell growth in NSCLC cells, ranking among the derivatives” value (NSCLC cells) was “most effective”.
